Experimental data reported in patent publication US7772221B2, “Diaminopropane derived macrocycles as inhibitors of β amyloid production” (Bristol-Meyers Squibb Company, priority 2007, dated 2010).
Read-outs that look alike come from different tables or passages of the source.

Experiments:
[1] = rcm bond
[2] = rcm bond, 1,2-dichloroethane, 60.0 °C
BACE1 enzyme = biological target: T1, BACE1 enzyme (Homo sapiens, UniProt P56817); assay: Radioligand displacement assay with a radiolabeled BACE inhibitor; type: binding; details: HEK293-9B.A1 cell homogenate overexpressing BACE1, 1 nM radioligand, pH 5.0, 1.5 hr at 25° C.; read-out: Activity Rating (activity based on IC50 values)
T1 construct: endogenous in cells; washed 48,000 x g membrane pellet / cell homogenate
T1 sequence (P56817 46-501): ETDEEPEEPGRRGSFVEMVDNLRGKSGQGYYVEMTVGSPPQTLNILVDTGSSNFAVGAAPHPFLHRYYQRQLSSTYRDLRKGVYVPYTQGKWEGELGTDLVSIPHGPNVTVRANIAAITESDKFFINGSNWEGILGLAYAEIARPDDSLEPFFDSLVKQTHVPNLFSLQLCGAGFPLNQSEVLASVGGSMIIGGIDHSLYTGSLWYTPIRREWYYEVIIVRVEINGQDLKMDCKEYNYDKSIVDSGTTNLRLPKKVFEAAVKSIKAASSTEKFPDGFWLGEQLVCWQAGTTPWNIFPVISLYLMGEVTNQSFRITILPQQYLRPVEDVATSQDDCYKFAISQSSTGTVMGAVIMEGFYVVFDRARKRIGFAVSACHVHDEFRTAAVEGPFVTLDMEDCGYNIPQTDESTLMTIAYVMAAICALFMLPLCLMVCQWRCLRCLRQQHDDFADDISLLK
From the text: There are a number of methods by which inhibitors of the BACE enzyme can be identified experimentally. The enzyme can be obtained from membrane samples from natural tissues or cultured cells or can be expressed recombinantly in a host cell by well known methods of molecular biology. The whole enzyme or a portion thereof can be expressed, for example, in bacterial, insect or mammalian cells to obtain a catalytically active enzyme species. The enzymatic activity and/or ligand binding capability of the enzyme can be assessed within these membrane samples, or the enzyme can be purified to varying extents. As an illustrative example, the nucleic acid sequence encoding the pro and catalytic domains of human BACE can be appended on the 5′ end with an untranslated and signal sequence from the gene for acetylcholinesterase, and on the 3′ end with a sequence encoding a poly-histidine tag. This cDNA can then be expressed in Drosophila melanogaster S2 cells in which the signal and pro sequences of the transcribed/translated protein are removed by cellular proteases and the catalytic domain, appended by a C-terminal poly-histidine tag, is secreted out into the cellular medium. The enzyme can then be purified from the culture medium by nickel affinity chromatography by methods well known to those trained in the art [Mallender, W. et al., “Characterization of recombinant, soluble beta-secretase from an insect cell expression system.” Mol. Pharmacol. 2001, 59: 619-626]. Similar strategies for expressing and purifying various forms of BACE in bacterial, mammalian and other cell types would be known to one skilled in the art. A preferred method for determining the potency of a test compound in binding to the BACE enzyme is by monitoring the displacement of a suitable radioligand.
Radioligand displacement assays with a radiolabeled BACE inhibitor (WO 2004 013098, compound 3, where the methoxy group is substituted for C(^3H)3) were carried out using standard methods (Keen, M. (1999) in Receptor Binding Techniques (Walker, J. M. ed) p. 106 Humana Press, Totowa, N.J.). The HEK293-9B.A1 cell line, which overexpresses the BACE1 enzyme, was derived from HEK293 cells (Simmons, N. L. (1990) A cultured human renal epithelioid cell line responsive to vasoactive intestinal peptide. Exp. Physiol. 75:309-19.) by RAGE™ (Harrington, J. J. et al. (2001) Creation of genome-wide protein expression libraries using random activation of gene expression. Nat. Biotechnol. 19:440-5.; U.S. Pat. Nos. 6,410,266 and 6,361,972). T225 flask cultures of HEK293-9B.A1 were grown to 80% confluency in DMEM supplemented with 2 mM L-glutamine, 10 μg/mL penicillin, 10 μg/mL streptomycin, 3 μg/mL puromycin, 100 nM methotrexate, and 10% fetal bovine serum (Invitrogen, Carlsbad, Calif.), harvested, and resuspended at 2×10^8 cells per 10 mL of lysis buffer consisting of 50 mM HEPES pH 7.0 containing a protease inhibitor cocktail of AEBSF 104 μM, aprotinin 80 nM, leupeptin 2 μM, bestatin 4 μM, pepstatin A 1.5 μM, and E-64 1.4 μM (0.1% of protease inhibitor cocktail P8340, Sigma-Aldrich, St. Louis, Mo.) at 4° C. The resuspended cells were homogenized using a Polytron (Brinkman, Westbury, N.Y.) at setting 6 for 10 sec., then centrifuged at 48,000×g for 10 min. The resulting pellet was washed by repeating the resuspension, homogenization and centrifugation steps. The final pellet was resuspended in buffer at 4° C. to yield a total protein concentration of 5 mg/mL, then aliquots were frozen in liquid nitrogen for further storage at −70° C. Immediately before carrying out a binding assay, an aliquot of cell homogenate was thawed and diluted to a concentration of 100 μg/mL in assay buffer consisting of 50 mM HEPES pH 5.0 and 0.1% CHAPSO. […]

CCCOc1ccc2c(c1)[C@@H]1C[C@H]2OCC=CCCCC(=O)N[C@@H](Cc2cc(F)cc(F)c2)[C@H](O)CN1
ring closure, yield after HPLC ([1]; from C=CCCCC(=O)N[C@@H](Cc1cc(F)cc(F)c1)[C@H](O)CN[C@H]1C[C@@H](OCC=C)c2ccc(OCCC)cc21, 16-membered ring, Hoveyda-Grubbs II, DCM, 25.0 °C, 16.0 h): 20%

CCCCCS(=O)(=O)N(C)[C@H]1CC=CCCCc2ccc(C(F)(F)F)cc2CNC[C@@H](O)[C@H](Cc2cc(F)cc(F)c2)NC1=O [Example 40, N-((4R,5S,8S)-5-(3,5-difluorobenzyl)-4-hydroxy-17-(trifluoromethyl)-7-oxo-1,2,3,4,5,6,7,8,9,12,13,14-dodecahydrobenzo[g][1,5]diazacyclohexadecin-8-yl)-N-methylpentane-1-sulfonamide]
ring closure, isolated yield ([2]; from C=CCCCc1ccc(C(F)(F)F)cc1CNC[C@@H](O)[C@H](Cc1cc(F)cc(F)c1)NC(=O)[C@H](CC=C)N(C)S(=O)(=O)CCCCC, 16-membered ring, Hoveyda-Grubbs (19 mol%), 6.5 mM, 16.0 h): 32% | IC50 (BACE1 enzyme): 10 to 500 nM

CCCC[C@H](C)C(=O)N(C)[C@H]1CC=CCOc2ccc(OC)cc2CNC[C@@H](O)[C@H](Cc2ccccc2)NC1=O [Example 59, (S)-N-((6S,9S,10R)-9-benzyl-10-hydroxy-15-methoxy-7-oxo-2,5,6,7,8,9,10,11,12,13-decahydrobenzo[b][1,5,9]oxadiazacyclopentadecin-6-yl)-N,2-dimethylhexanamide]
ring closure, yield after HPLC ([1]; from C=CCOc1ccc(OC)cc1CNC[C@@H](O)[C@H](Cc1ccccc1)NC(=O)[C@H](CC=C)N(C)C(=O)[C@@H](C)CCCC, 15-membered ring, Hoveyda-Grubbs II (21 mol%), DCM, 4.3 mM, 40.0 °C, 4.0 h): 49% | IC50 (BACE1 enzyme): > 500 nM

COc1ccc2c(c1)[C@@H]1CC2N(C(=O)OCc2ccccc2)CCC=CC[C@H](N(C)C(C)=O)C(=O)N[C@@H](Cc2ccccc2)[C@H](O)CN1
ring closure, yield after HPLC ([1]; from C=CCCN(C(=O)OCc1ccccc1)C1C[C@H](NC[C@@H](O)[C@H](Cc2ccccc2)NC(=O)[C@H](CC=C)N(C)C(C)=O)c2cc(OC)ccc21, 16-membered ring): 83%

CCCCCS(=O)(=O)N(C)[C@H]1CC=CCCCc2ccc(C)cc2CNC[C@@H](O)[C@H](Cc2cc(F)cc(F)c2)NC1=O
ring closure, isolated yield ([2]; from (S)-N-((2S,3R)-1-(3,5-difluorophenyl)-3-hydroxy-4-(5-methyl-2-(pent-4-enyl)benzylamino)butan-2-yl)-2-(N-methylpentylsulfonamido) pent-4-enamide, 16-membered ring, Hoveyda-Grubbs (20 mol%), 6.3 mM): 18%

CC(C)C[C@@H]1COCC=CCC[C@H](N(C)S(=O)(=O)CCC(F)(F)F)C(=O)N[C@@H](Cc2cc(F)cc(F)c2)[C@H](O)CN1 [Example 42, N-((3R,6R,7S,10S)-7-(3,5-difluorobenzyl)-6-hydroxy-3-isobutyl-9-oxo-1-oxa-4,8-diazacyclopentadec-13-en-10-yl)-3,3,3-trifluoro-N-methylpropane-1-sulfonamide]
ring closure, isolated yield ([2]; from C=CCC[C@@H](C(=O)N[C@@H](Cc1cc(F)cc(F)c1)[C@H](O)CN[C@@H](COCC=C)CC(C)C)N(C)S(=O)(=O)CCC(F)(F)F, 15-membered ring, Hoveyda-Grubbs (16 mol%), 19.0 mM, 16.0 h): 19% | IC50 (BACE1 enzyme): > 500 nM

CCCC[C@H](C)C(=O)N(C)[C@H]1CC=CCOC[C@@H](c2ccccc2)NC[C@@H](O)[C@H](Cc2cc(F)cc(F)c2)NC1=O [Example 18, (S)-2-methyl-hexanoic acid [(3R,6R,7S,10S)-7-(3,5-difluoro-benzyl)-6-hydroxy-9-oxo-3-phenyl-1-oxa-4,8-diaza-cyclotetradec-12-en-10-yl]-methyl-amide]
IC50 (BACE1 enzyme): > 500 nM

CCCC(CCC)C(=O)N(C)[C@H]1CC=CCO[C@@H]2C[C@H](NC[C@@H](O)[C@H](Cc3ccccc3)NC1=O)c1cc(OC)ccc12
ring closure, yield after HPLC ([1]; from C=CCO[C@@H]1C[C@H](NC[C@@H](O)[C@H](Cc2ccccc2)NC(=O)[C@H](CC=C)N(C)C(=O)C(CCC)CCC)c2cc(OC)ccc21, 15-membered ring, Hoveyda-Grubbs II (9 mol%), DCM, 25.0 °C, 16.0 h): 34%

CC(C)(C)OC(=O)N1CC2CN(c3ccc4c(c3)[C@@H]3C[C@H]4OCC=CCCCC(=O)N[C@@H](Cc4cc(F)cc(F)c4)[C@H](O)CN3)CC2C1 (stereo partly drawn) [Example 96, 5-[(1S,4R,5S,15R)-5-(3,5-difluoro-benzyl)-4-hydroxy-7-oxo-14-oxa-2,6-diaza-tricyclo[13.6.1.0^16,21]docosa-11,16(21),17,19-tetraen-19-yl]-hexahydro-pyrrolo[3,4-c]pyrrole-2-carboxylic acid tert-butyl ester]
IC50 (BACE1 enzyme): 10 to 500 nM

CC(C)Oc1ccc2c(c1)[C@@H]1C[C@H]2OCC=CCCCC(=O)N[C@@H](Cc2cc(F)cc(F)c2)[C@H](O)CN1 [Example 78, (1S,4R,5S,15R)-5-(3,5-difluoro-benzyl)-4-hydroxy-19-isopropoxy-14-oxa-2,6-diaza-tricyclo[13.6.1.0^16,21]docosa-11,16(21),17,19-tetraen-7-one]
IC50 (BACE1 enzyme): < 10 nM
